Earlier results, collected in US20160015722A1, “TREATMENT OF ENDOMETRIOSIS” (priority 2014, published 2016).

System: FSH (Follicle Stimulating Hormone) and LH (Leutinizing Hormone) release from the pituitary
Conditions: for FSH and LH release from the pituitary gland: previous hormonal treatments of endometriosis

Compound | FSH and LH release from the pituitary (nandrolone used alone) | FSH and LH release from the pituitary gland
C[C@]12CC[C@H]3[C@@H](CCC4=CC(=O)CC[C@@H]43)[C@@H]1CC[C@@H]2O [Nandrolone, nandrolone] | suppresses | 
luprolide acetate |  | suppress
C#C[C@]1(O)CC[C@H]2[C@@H]3CCC4=Cc5oncc5C[C@]4(C)[C@H]3CC[C@@]21C [danazol] |  | suppress
